Some test systems named below: COLO 205 colon; UACC-257 melanoma; RXF 393 renal; UO-31 renal; HCT-15 colon; RPMI-8226 leukemia; SR leukemia; HL-60(TB) leukemia; OVCAR-5 ovarian; LOX IMVI melanoma; SNB-19 CNS; MCF7 breast; SF-539 CNS; SK-OV-3 ovarian; TK-10 renal; MDA-MB-231 breast.
Common to all, as to assay: NCI tumour cell line growth inhibition, 48 h

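Method: 48-hour compound exposure of cells in 96-well plates, five concentrations, linear interpolation of endpoints. The concentration for full growth arrest is given as TGI.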

As to `COc1ccc(/C=C2\C[C@H]3[C@@H]4CC=C5C[C@@H](OC(C)=O)CC[C@]5(C)[C@H]4CC[C@]3(C)C2=O)cc1OC`, the TGI with COLO 205 colon is above 100 µM; with UACC-257 melanoma, above 100 µM; in the test on RXF 393 renal, above 100 µM; with UO-31 renal, 35.9 µM; in the test with HCT-15 colon, above 100 µM; with RPMI-8226 leukemia, above 100 µM. The TGI was above 100 µM in the test on SR leukemia; 78.9 µM with HL-60(TB) leukemia; above 100 µM in the test with OVCAR-5 ovarian; above 100 µM with LOX IMVI melanoma; above 100 µM in the test on SNB-19 CNS; above 100 µM in the test with MCF7 breast. In the test with SF-539 CNS, this compound gave a TGI above 100 µM.
Consider `O=C1N=CN=C2C=CC(Cl)=C(I)C12` (stereo not given), for which the TGI with COLO 205 colon was above 100 µM; in the test with SK-OV-3 ovarian, above 100 µM; in the test with UACC-257 melanoma, above 100 µM; with RXF 393 renal, 70.8 µM; with UO-31 renal, 65.7 µM; with TK-10 renal it was above 100 µM. Also, the TGI in the test with RPMI-8226 leukemia, with SR leukemia, in the test with HL-60(TB) leukemia, with OVCAR-5 ovarian, in the test on LOX IMVI melanoma and with SNB-19 CNS was above 100 µM throughout.
Consider `CCOC(=O)c1cc(-c2ccc([N+](=O)[O-])cc2)c([N+](=O)[O-])[nH]1`, for which the TGI with SK-OV-3 ovarian is above 10 µM; with UACC-257 melanoma it was 5.68 µM; with RXF 393 renal, 9.41 µM; in the test on UO-31 renal it was 9.69 µM; with TK-10 renal it was above 10 µM; in the test with HCT-15 colon, above 10 µM. Further, the TGI in the test on SR leukemia, with OVCAR-5 ovarian, in the test with SNB-19 CNS, in the test with MDA-MB-231 breast and in the test with SF-539 CNS was above 10 µM throughout.
Consider `N#CC(C(=O)/C(=N/NC(=O)c1ccccc1O)C(C#N)c1ccc(Br)cc1)c1ccc(Br)cc1` (stereo not given), for which the TGI in the test on COLO 205 colon was 30.1 µM; in the test on SK-OV-3 ovarian, above 100 µM; in the test with UACC-257 melanoma, 29.5 µM; in the test on RXF 393 renal, 16 µM; with UO-31 renal, 26.1 µM; in the test on TK-10 renal it was 39.1 µM. For the same compound, the TGI was 25.5 µM with HCT-15 colon; 29.1 µM with OVCAR-5 ovarian; 23 µM in the test with LOX IMVI melanoma; 24.3 µM with SNB-19 CNS; 25.3 µM in the test on SF-539 CNS.
With `O=S1(=O)OCCOS(=O)(=O)C1(Cl)Cl`, the TGI in the test on COLO 205 colon, in the test on SK-OV-3 ovarian, in the test with UACC-257 melanoma, in the test on UO-31 renal, in the test with TK-10 renal and in the test with RPMI-8226 leukemia was above 100 µM in each case. Moreover, the TGI in the test with SR leukemia, in the test on HL-60(TB) leukemia, in the test with LOX IMVI melanoma, in the test with SNB-19 CNS and in the test on SF-539 CNS was above 100 µM throughout.
As to `C=CCOC1CC(n2cnc3c(N)ncnc32)OC1CO` (stereo not given), the TGI in the test with COLO 205 colon, in the test with UACC-257 melanoma, in the test on UO-31 renal, with TK-10 renal, with HCT-15 colon and in the test with RPMI-8226 leukemia was above 100 µM throughout. The TGI in the test with SR leukemia, in the test on HL-60(TB) leukemia, in the test with OVCAR-5 ovarian, in the test on SNB-19 CNS and in the test on SF-539 CNS was above 100 µM each time.
Turning to `CC1OC(OC2C(OC(=O)[C@]34CCC(C)(C)CC3C3=CCC5[C@@]6(C)C[C@H](O)[C@H](OC7OC(COC8OC(CO)C(O)C(O)C8O)C(O)C(O)C7O)[C@@](C)(C(=O)O)C6CC[C@@]5(C)C3(C)CC4)OCC(O)C2O)C(O)C(O)C1OC1OCC(O)C(O)C1O` (stereo not given in full), the TGI in the test with COLO 205 colon, in the test on SK-OV-3 ovarian, in the test with UACC-257 melanoma, in the test on RXF 393 renal, in the test on UO-31 renal and in the test with TK-10 renal was above 100 µM in each case. Moreover, the TGI in the test with HCT-15 colon, in the test on RPMI-8226 leukemia, with HL-60(TB) leukemia, in the test on OVCAR-5 ovarian, in the test on LOX IMVI melanoma and in the test on SNB-19 CNS was above 100 µM throughout. This compound yielded a TGI in the test on SF-539 CNS above 100 µM.
In the case of `Cc1ccc(C(=O)C(c2nc3n(c2O)C(=N)N=N3)c2nc3n(c2O)C(=N)N=N3)cc1` (stereo not given), the TGI with COLO 205 colon, in the test with SK-OV-3 ovarian, in the test on UACC-257 melanoma, in the test with RXF 393 renal, with UO-31 renal and with TK-10 renal was above 100 µM throughout. The TGI with HCT-15 colon, with RPMI-8226 leukemia, with HL-60(TB) leukemia, in the test with OVCAR-5 ovarian, in the test with LOX IMVI melanoma and with SNB-19 CNS was above 100 µM each time. Further, the TGI in the test with SF-539 CNS was above 100 µM.
Consider `CN(C)CCCOc1ccc(/C=C2/CCC/C(=C/c3ccc(OCCCN(C)C)cc3)C2=O)cc1`, for which the TGI with COLO 205 colon stood at 3.2 µM; with SK-OV-3 ovarian, 4.18 µM; in the test with UACC-257 melanoma it was 3.93 µM; with RXF 393 renal, 2.98 µM; in the test on UO-31 renal it was 3.34 µM; in the test on TK-10 renal, 5.33 µM. Moreover, the TGI in the test with HCT-15 colon was found to be 2.5 µM; in the test on RPMI-8226 leukemia, 3.43 µM; with HL-60(TB) leukemia, 3.65 µM; in the test with OVCAR-5 ovarian, 0.644 µM; in the test on LOX IMVI melanoma it was 3.29 µM; with SNB-19 CNS it was 4.74 µM. Moreover, in the test on SF-539 CNS, the TGI amounted to 3.02 µM.
On to `CCC(=O)N(c1ccccc1)C(C)CN1CCC(O)(c2cccc(C(F)(F)F)c2)CC1` (stereo not given), for which the TGI in the test with COLO 205 colon was 28.5 µM; in the test with SK-OV-3 ovarian it was above 100 µM; in the test on UACC-257 melanoma, 34.3 µM; in the test on RXF 393 renal, above 100 µM; with UO-31 renal, 72.6 µM; in the test with TK-10 renal, 73.3 µM. Also, the TGI in the test on HCT-15 colon was 90.9 µM; in the test on RPMI-8226 leukemia, 45.3 µM; in the test with HL-60(TB) leukemia, 39.3 µM; with OVCAR-5 ovarian it was 55.4 µM; with LOX IMVI melanoma, 35 µM; with SNB-19 CNS it was above 100 µM. Besides, the TGI in the test with MDA-MB-231 breast was 44.7 µM; in the test with SF-539 CNS, 49 µM.
With `COc1ccc2nc3c(C)cc4ccccc4n3c2c1`, the TGI in the test with SK-OV-3 ovarian, in the test with UACC-257 melanoma, in the test with RXF 393 renal, in the test on UO-31 renal, in the test with TK-10 renal and in the test with HCT-15 colon was above 100 µM in each case. Further, the TGI with RPMI-8226 leukemia, with SR leukemia, in the test on HL-60(TB) leukemia, in the test with OVCAR-5 ovarian, with SNB-19 CNS and with MCF7 breast was above 100 µM in each case. Also, the TGI with SF-539 CNS is above 100 µM.
